Data as given in patent US8410106B2, “Hydrazine-substituted anthranilic acid derivatives” (Bayer Cropscience AG, priority 2010, dated 2013).
Where two headings read alike, the source gives them in different places.

Assays:
[1] = logP determination by HPLC on reversed-phase columns (C 18), EEC Directive 79/831 Annex V.A8; type: physicochemical
[2] = tested on: green peach aphid (Myzus persicae); assay: Myzus test (MYZUPE spray treatment); type: in vivo; settings: foliar, 144 h, read-out: activity (aphids killed)
Procedure: After 6 days the activity is determined, in %.

[3] = tested on: caterpillars of the army worm (Spodoptera frugiperda); assay: Spodoptera frugiperda test (SPODFR spray treatment); type: in vivo; settings: foliar, 168 h, read-out: activity (caterpillars killed)
[4] = tested on: larvae of the mustard beetle (Phaedon cochleariae); assay: Phaedon test (PHAECO spray treatment); settings: in Brassica rapa, foliar, 168 h, read-out: activity (beetle larvae killed)
[5] = HPLC, reversed-phase C 18, value in text of the Preparation Examples, read-out: logP
[6] = HPLC, reversed-phase C 18, table value without method mark, read-out: logP
[7] = application rate 100 g/ha, after 7 days, maize leaf discs, spray
[8] = application rate 100 g/ha, after 6 days, Chinese cabbage leaf discs, spray

Compound | pest or weed control at 100 g/ha ([2]; in Brassica rapa) [%] | pest or weed control at 100 g/ha ([3]; in Zea mays) [%] | pest or weed control at 100 g/ha [4] [%] | chromatographic logP [1] | chromatographic logP [1, 6] | also measured
COC(=O)N(C)NC(=O)c1cc(Cl)cc(C)c1NC(=O)c1cc(Cn2nnc(C(F)(F)C(F)(F)C(F)(F)F)n2)nn1-c1ncccc1Cl [Example 1, methyl N′-(5-chloro-2-{[2-(3-chloropyridin-2-yl)-5-(5-heptalluoropropyltetrazol-2-ylmethyl)-2H-pyrazole-3-carbonyl]amino}-3-methylbenzoyl)-N-methylhydrazinecarboxylate] | 100 | 100 | 100 | – | – | chromatographic logP [1, 5]: 3.66
COC(=O)NNC(=O)c1cc(I)cc(C)c1NC(=O)c1cc(Cn2nnc(C(F)(F)C(F)(F)C(F)(F)F)n2)nn1-c1ncccc1Cl [Example 2, Methyl N′-(2-{[2-(3-chloropyridin-2-yl)-5-(5-heptalluoropropyltetrazol-2-ylmethyl)-2H-pyrazole-3-carbonyl]amino}-5-iodo-3-methylbenzoyl)hydrazincarboxylate] | – | 100 | 100 | – | – | chromatographic logP [1, 5]: 3.58
COC(=O)NNC(=O)c1cc(Cl)cc(C)c1NC(=O)c1cc(Cn2nnc(C(F)(F)F)n2)nn1-c1ncccc1Cl [Example 3] | 100 | 100 | 100 | 2.73 | – | –
COC(=O)NNC(=O)c1cc(C#N)cc(C)c1NC(=O)c1cc(Cn2nnc(C(F)(F)F)n2)nn1-c1ncccc1Cl [Example 4] | 100 | 100 | 100 | 2.41 | – | –
COC(=O)N(C)NC(=O)c1cc(Cl)cc(C)c1NC(=O)c1cc(Cn2nnc(C(F)(F)F)n2)nn1-c1ncccc1Cl [Example 5] | 100 | 100 | 100 | 2.96 | – | –
COC(=O)N(C)NC(=O)c1cc(C#N)cc(C)c1NC(=O)c1cc(Cn2nnc(C(F)(F)F)n2)nn1-c1ncccc1Cl [Example 6] | 100 | 100 | 100 | 2.63 | – | –
COC(=O)N(C)N(C)C(=O)c1cc(Cl)cc(C)c1NC(=O)c1cc(Cn2nnc(C(F)(F)F)n2)nn1-c1ncccc1Cl [Example 7] | 100 | 100 | 100 | 3.39 | – | –
COC(=O)N(C)N(C)C(=O)c1cc(C#N)cc(C)c1NC(=O)c1cc(Cn2nnc(C(F)(F)F)n2)nn1-c1ncccc1Cl [Example 8] | 100 | 100 | 100 | 2.97 | – | –
COC(=O)N(C)NC(=O)c1cc(Cl)cc(C)c1NC(=O)c1cc(Cn2nc(C(F)(F)F)cc2C(F)(F)F)nn1-c1ncc(C(F)(F)F)cc1Cl [Example 10] | – | – | – | – | 4.35 | –
COC(=O)N(C)NC(=O)c1cc(Cl)cc(Cl)c1NC(=O)c1cc(Cn2nc(C(F)(F)F)c(Cl)c2C)nn1-c1ncccc1Cl [Example 11] | 90 | 100 | 100 | 3.55 | – | –
COC(=O)N(C)NC(=O)c1cc(Cl)cc(Cl)c1NC(=O)c1cc(Cn2nc(C(F)(F)F)c(Br)c2C)nn1-c1ncccc1Cl [Example 12] | 100 | 100 | 100 | 3.57 | – | –
COC(=O)N(C)NC(=O)c1cc(Cl)cc(C)c1NC(=O)c1cc(Cn2nc(C(F)(F)C(F)(F)F)cc2C(F)(F)C(F)(F)F)nn1-c1ncccc1Cl [Example 13] | – | – | 100 | – | 4.32 | pest or weed control at 100 g/ha [3, 7]: 100%
COC(=O)N(C)NC(=O)c1cc(Cl)cc(Cl)c1NC(=O)c1cc(Cn2nc(C(F)(F)C(F)(F)F)cc2C(F)(F)C(F)(F)F)nn1-c1ncccc1Cl [Example 14] | – | – | 100 | – | 4.3 | pest or weed control at 100 g/ha [3, 7]: 100%
COC(=O)N(C)NC(=O)c1cc(Cl)cc(Cl)c1NC(=O)c1cc(Cn2nc(C(F)(F)F)cc2-c2ccccc2)nn1-c1ncccc1Cl [Example 15] | – | – | – | – | 3.82 | pest or weed control at 100 g/ha [3, 7]: 100%
COC(=O)N(C)NC(=O)c1cc(C#N)cc(C)c1NC(=O)c1cc(Cn2nnc(C(F)(C(F)(F)F)C(F)(F)F)n2)nn1-c1ncccc1Cl [Example 16] | – | – | 100 | – | 3.26 | pest or weed control at 100 g/ha [2, 8]: 100%; pest or weed control at 100 g/ha [3, 7]: 100%
COC(=O)N(C)NC(=O)c1cc(I)cc(C)c1NC(=O)c1cc(Cn2ccc(C(F)(F)F)n2)nn1-c1ncccc1Cl [Example 17] | 100 | 100 | 100 | 3.01 | – | –
COC(=O)N(C)NC(=O)c1cc(Cl)cc(Cl)c1NC(=O)c1cc(Cn2nc(C(F)(F)F)cc2C(F)(F)F)nn1-c1ncc(C(F)(F)F)cc1Cl [Example 18] | – | – | – | – | 4.32 | –
COC(=O)N(C)NC(=O)c1cc(Cl)cc(Cl)c1NC(=O)c1cc(Cn2nc(C(F)(F)F)c([N+](=O)[O-])c2C)nn1-c1ncccc1Cl [Example 19] | – | – | 100 | – | 3.11 | pest or weed control at 100 g/ha [3, 7]: 100%
COC(=O)N(C)NC(=O)c1cc(Cl)cc(C)c1NC(=O)c1cc(Cn2cc([N+](=O)[O-])c(C(F)(F)F)n2)nn1-c1ncccc1Cl [Example 20] | 90 | 100 | 100 | 3.07 | – | –
COC(=O)N(C)NC(=O)c1cc(Cl)cc(Cl)c1NC(=O)c1cc(Cn2nc(C(F)(F)F)nc2C)nn1-c1ncccc1Cl [Example 21] | 90 | 100 | – | 2.51 | – | –

Compound | pest or weed control at 100 g/ha ([2]; in Brassica rapa) [%] | pest or weed control at 100 g/ha ([3]; in Zea mays) [%] | pest or weed control at 100 g/ha [4] [%] | chromatographic logP [1] | chromatographic logP [1, 6] | also measured
COC(=O)N(C)NC(=O)c1cc(C#N)cc(C)c1NC(=O)c1cc(COc2ccc(C(F)(F)F)nn2)nn1-c1ncccc1Cl [Example 22] | 100 | – | 100 | 2.53 | – | –
COC(=O)N(C)NC(=O)c1cc(Cl)cc(C)c1NC(=O)c1cc(Cn2cc(-c3ccc(Cl)cc3)nn2)nn1-c1ncccc1Cl [Example 23] | 100 | 100 | 100 | 3.14 | – | –
COC(=O)N(C)NC(=O)c1cc(Cl)cc(C)c1NC(=O)c1cc(Cn2cc(C(C)(C)C)nn2)nn1-c1ncccc1Cl [Example 24] | – | – | – | 2.53 | – | –
COC(=O)N(C)N(C)C(=O)c1cc(Cl)cc(C)c1NC(=O)c1cc(Cn2cc(C3CC3)nn2)nn1-c1ncccc1Cl [Example 39] | 80 | – | – | 2.71 | – | –
COC(=O)N(C)N(C)C(=O)c1cc(Cl)cc(C)c1NC(=O)c1cc(Cn2cc(C(C)(C)C)nn2)nn1-c1ncccc1Cl [Example 40] | – | – | – | 2.98 | – | –
COC(=O)N(C)NC(=O)c1cc(Cl)cc(Cl)c1NC(=O)c1cc(Cn2nnc(C(F)(F)F)n2)nn1-c1ncccc1Cl [Example 43] | – | – | – | 2.92 | – | –
COC(=O)N(C)NC(=O)c1cc(F)cc(C)c1NC(=O)c1cc(Cn2nnc(C(F)(F)C(F)(F)F)n2)nn1-c1ncccc1Cl [Example 44] | – | – | – | 3.05 | – | –
COC(=O)N(C)NC(=O)c1cc(C#N)cc(C)c1NC(=O)c1cc(Cn2nnnc2C(F)(F)F)nn1-c1ccccc1Cl [Example 55] | – | – | – | – | 2.69 | –
COC(=O)N(C)NC(=O)c1cc(C#N)cc(C)c1NC(=O)c1cc(Cn2nnc(C(F)(F)F)n2)nn1-c1ccccc1Cl [Example 56] | – | – | – | – | 2.97 | –
COC(=O)NNC(=O)c1cc(C#N)cc(C)c1NC(=O)c1cc(Cn2nnc(C(F)(F)F)n2)nn1-c1ccccc1Cl [Example 58] | – | – | – | – | 2.79 | –
COC(=O)NNC(=O)c1cc(Cl)cc(C)c1NC(=O)c1cc(Cn2cc(C(C)(C)C)nn2)nn1-c1ncccc1Cl [Example 62] | – | 100 | – | 2.38 | – | –
COC(=O)N(C)NC(=O)c1cc(Cl)cc(C)c1NC(=O)c1cc(Cn2cnc(SC)n2)nn1-c1ncccc1Cl [Example 64] | – | – | – | 2.09 | – | –
COC(=O)N(C)NC(=O)c1cc(Cl)cc(C)c1NC(=O)c1cc(Cn2nc(C)c(Br)c2C)nn1-c1ncccc1Cl [Example 65] | 80 | 100 | – | 2.97 | – | –
COC(=O)N(C)NC(=O)c1cc(Cl)cc(C)c1NC(=O)c1cc(CNS(=O)(=O)c2ccccc2C(F)(F)F)nn1-c1ncccc1Cl [Example 70] | – | – | – | – | 2.81 | –
COC(=O)N(C)NC(=O)c1cc(Cl)cc(C)c1NC(=O)c1cc(CNS(=O)(=O)c2ccccc2)nn1-c1ncccc1Cl [Example 71] | – | – | – | 2.42 | – | –
COC(=O)N(C)NC(=O)c1cc(C#N)cc(C)c1NC(=O)c1cc(Cn2cnc(C(F)(F)F)c2C(F)(F)F)nn1-c1ncccc1Cl [Example 76] | – | – | – | – | 2.77 | –
COC(=O)N(C)NC(=O)c1cc(I)cc(C)c1NC(=O)c1cc(Cn2cnc(C(F)(F)F)c2)nn1-c1ncccc1Cl [Example 77] | 80 | 83 | – | 2.56 | – | –
COC(=O)N(C)NC(=O)c1cc(C#N)cc(C)c1NC(=O)c1cc(Cn2cnc(C(F)(F)F)c2)nn1-c1ncccc1Cl [Example 78] | 90 | – | – | 2.1 | – | –
COC(=O)NNC(=O)c1cc(I)cc(C)c1NC(=O)c1cc(Cn2cnc(C(F)(F)F)c2)nn1-c1ncccc1Cl [Example 80] | – | – | – | 2.38 | – | –
COC(=O)NNC(=O)c1cc(C#N)cc(C)c1NC(=O)c1cc(Cn2nnc(C(F)(F)F)n2)nn1-c1ccccc1Cl [Example 84] | – | – | 100 | – | – | pest or weed control at 100 g/ha [2, 8]: 100%; pest or weed control at 100 g/ha [3, 7]: 100%
